According to a melting point compilation (Tetko et al.; mined from patent text by program, amines drawn as free bases though some values may be those of a salt):

Row | SMILES | melting point
1 | O=C(c1ccc(-c2cc(Cl)ccc2O)cc1C(F)(F)F)N1CCCC1 | 220 to 221 °C
2 | CCN(CC)N(C(C)=O)c1nc2cc3nc(N(C(C)=O)N(CC)CC)sc3cc2s1 | 224 to 225 °C
3 | CCCCc1c(C(=O)OCC)cc(Oc2nnnn2-c2ccccc2)c2ccc(OC)cc12 | 94 to 96 °C
4 | N#CC1(N)CC2(OC(c3ccccc3)C(c3ccccc3)O2)C2C1C2(F)C(N)=O (configuration not stated) | 197 °C
5 | O=[N+]([O-])c1c(Cl)cc(Cl)cc1-c1n[nH]cc1Cl | 173 °C
6 | O=C(O)c1ccc(-c2cnc3c(c2)N(Cc2ccccc2)CCN3)cc1 | > 300 °C
7 | CCOC(=O)C1=C(C)NC(N=CN2CCCCC2)=C(C(=O)OCC)C1c1ccccc1Cl (configuration not stated) | 145 °C
8 | Cc1cnc(-c2cc(C(F)(F)F)nn2C)nc1Oc1cc(C(F)(F)F)nn1C | 113 °C
9 | CCc1ccc2c(O)c(-c3nnnn3C)cnc2c1 | 270 to 273 °C
10 | CCOc1ccc2c(c1)C(C)=CC(C)(C)N2C1O[C@H](COC(C)=O)[C@@H](OC(C)=O)[C@H](OC(C)=O)[C@H]1OC(C)=O (some centres not stated) | 180 to 181 °C
11 | N#CC(=NNC(=N)N)c1cccc(Cl)c1Cl | 221 to 222 °C
12 | Cc1c(CCC2C(=O)OCCC2OC2CCCCO2)c2c(c(C)c1OCc1ccccc1)CCC(C)(C)O2 (configuration not stated) | 95 to 95.5 °C
13 | CC(C)(C)c1csc(-c2cc3cc(Cc4nc(C(=O)O)cs4)ccc3o2)n1 | 227 to 230 °C
14 | CC(=O)NNC(=O)c1cccc(I)c1 | 156 to 158 °C
15 | NC(N)=NC(=O)Cc1c(-c2ccccc2Cl)csc1-c1ccc(OCCc2cn[nH]c2)cc1 | 71 to 72 °C
16 | CC(CCC(=O)NN1CCN(C)CC1)C1CC=C2C3=C(CCC21C)C1(C)CCC(O)C(C)(C)C1CC3 (configuration not stated) | 189 to 191 °C
17 | O=C1COc2ccc3ccccc3c21 | 194 to 196 °C
18 | CSc1ccc(Br)cn1 | 39 to 40 °C
19 | CCCC(=O)C(=CNc1ccc(O)cc1OC)C(=O)OCC | 140 to 142 °C
20 | O=C(c1ccc([N+](=O)[O-])cc1)N1CCC(OCc2ccc(F)cc2)CC1 | 120 °C
21 | CCOCCn1c(N2CCN(CC)CC2)nc2ccccc21 | 134 to 136 °C
22 | O=C(O)Cc1c(C(=O)C2CCCCC2)[nH]c2cc(Cl)ccc12 | 206 to 209 °C
23 | COc1cccc(C=CC(=O)CC(=O)C=Cc2cccc(OC)c2OC)c1OC | 117 to 120 °C
24 | Fc1ccc(F)c(C(Sc2ccc(Cl)cc2)c2ccncc2Cl)c1 (configuration not stated) | 70 to 72 °C

Row | SMILES | melting point
25 | CC(CCC1C(C)CCCC1(C)C)Oc1ccc(C(=O)O)cc1 (configuration not stated) | 114 to 118 °C
26 | CCCCCCCCCc1cnc(-c2ccc(OCc3ccc(CCCCCC)cc3)cc2)nc1 | 51 °C
27 | O=C(C=Cc1ccc2c(c1)OCO2)c1cccc(OCCCCCBr)c1 | 87 to 88 °C
28 | COc1ccc(C(=O)c2c[nH]c(=O)[nH]2)cc1OC | 257 to 259 °C
29 | CCc1noc(-c2ncc3[nH]c4cccc(Oc5ccc(Cl)cc5)c4c3c2COC)n1 | 170 °C
30 | Cc1[nH]c2ccccc2c1CCN1CCN(C(c2ccc(F)cc2)c2ccc(F)cc2)CC1 | 65 to 73 °C
31 | ON=Cc1cccc(OCc2ccccc2)c1 | 58 to 59 °C
32 | COCCCn1nnnc1-c1cc(-c2cc(C(C)C)ccc2OC)c(O)cc1O | 174 to 176 °C
33 | Cc1c[nH]c2c([N+](=O)[O-])ccc(C)c2c1=O | 250 to 262 °C
34 | CCCCCCC(=O)N(CCCCn1ccnc1)C1=Nc2cccc3cccc1c23 | 82 to 84 °C
35 | O=Cc1ccc2cc[nH]c2c1 | 126 to 128 °C
36 | CC(C)(C)c1cc2c(=O)[nH]cnc2o1 | 198 to 200 °C
37 | COc1cccc2c(=O)cc(-c3ccccc3SCc3ccccc3)[nH]c12 | 139 to 140 °C
38 | CCCO[C@@H]1[C@@H](OC)[C@H](C)O[C@@H](OC(=O)Nc2ccc(-c3ncn(-c4ccc(OC(F)(F)C(F)(F)F)cc4)n3)cc2)[C@@H]1OC | 158 °C
39 | COC(=O)c1nc(-c2ccc(Cl)c(OC)c2F)nc(O)c1OC | 177 to 179 °C
40 | COc1cc(N)c(Cl)cc1C(=O)N[C@@H]1CCN(CCCC(=O)N2CCCC2)C[C@H]1O (relative stereo) | 175 °C
41 | N#CCCOc1cccc(O)c1C=O | 84 to 86 °C
42 | CN1CC(CO)C=C2c3cccc4c3c(cn4C)CC21 (configuration not stated) | 216 to 217 °C
43 | CCOC(=O)c1cc(CC)sc1Nc1ccc(C(F)F)cc1[N+](=O)[O-] | 88 to 90 °C
44 | CCN1C(=O)C(C)N(c2ccc(Oc3ccccc3)cc2)C1=S (configuration not stated) | 102 °C
45 | CCCn1c2c(c3ccccc3c1=O)C(=O)c1ccccc1-2 | 166 to 167 °C
46 | O=C1c2ccccc2C(=O)N1CC(=O)N1c2ccccc2N(Cc2ccccc2)C[C@@H]2CCC[C@H]21 (relative stereo) | 232 to 234 °C
47 | CCOC(=O)CC(=O)c1cc(Oc2ccccc2)c(NS(C)(=O)=O)cc1O | 112 °C
48 | CCOC(=N)c1sc2ccc(Cl)cc2c1O | 236 °C

Row | SMILES | melting point
49 | O=C(Nc1ccccc1)Nc1nc(=O)n(S(=O)(=O)c2ccccc2)cc1F | 210 to 214 °C
50 | c1ccc2c(c1)CCc1c-2n[nH]c1-c1ccncc1 | 229 °C
51 | COC(C)=CC(=O)Nc1cccc(NC(C)=O)c1 | 167 °C
52 | CC(C)c1cccc(C(C)C)c1NC(=O)[C@H](C)NC(c1ccccc1)c1ccccc1 | 134 to 138 °C
53 | O=C(O)CCCC=Cc1nn(-c2ccc(F)cc2)c2c1CCC2 | 90 to 91 °C
54 | CCOC(=O)c1cc(OCC)c(OCC)cc1N | 69 to 71 °C
55 | CSC(=C[N+](=O)[O-])NCC(O)c1cccc(C)c1 (configuration not stated) | 99 to 101 °C
56 | COc1nc(C)nc(NNC(N)=NS(=O)(=O)c2ccccc2OC(F)(F)F)n1 | 245 °C
57 | CC(C)(O)Cn1c(COCc2ccccc2)nc2c(N)nc3ccccc3c21 | 196 to 198 °C
58 | COc1ccc([C@H]2C=CN(S(=O)(=O)c3ccc(OC)cc3)C(=O)[C@H]2CCC2C=CC=CC2=O)cc1 (some centres not stated) | 159 to 161 °C
59 | CCOC(=O)COc1cc(O)c2c(c1Cl)OC1(CCCCC1)CC2=O | 110 to 111 °C
60 | OCc1cc(N2CCCC2)ncn1 | 136 to 139 °C
61 | CCCCCC1=CN(N)C2=NC(O)N(CCCNC(C)=O)C2=C1 (configuration not stated) | 189 to 191 °C
62 | CS(=O)(=O)Nc1cc2c(cc1Oc1ccccc1)C(=O)C(Br)(Br)CO2 | 169 to 170 °C
63 | Cc1c(I)c(=O)n(C)c(=O)n1C | 155 to 157 °C
64 | CCCCCS(=O)(=O)NC(=O)CCc1cc(C2CC2)nn1Cc1ccc(C(F)(F)F)cc1Cl | 152 to 154 °C
65 | CON(C)S(=O)(=O)c1ccccc1S(N)(=O)=O | 136 to 140 °C
66 | Cc1cc2c(cc1C(=O)c1ccccc1Cl)OC(C(=O)O)O2 (configuration not stated) | 133 to 135 °C
67 | CN(c1ccc2sccc2c1)c1nc(=O)c2cccnc2s1 | 214 to 216 °C
68 | CCS(=O)(=O)c1cc2c(O)cccc2o1 | 145 to 147 °C
69 | COC(=O)c1c(C(F)F)nc(C(F)(F)F)c(C(=O)OC)c1CSC | 50.5 to 51.5 °C
70 | COc1ccc(Br)c2cc(C(=O)c3cccc(C(F)(F)F)c3)oc12 | 78 to 79 °C
71 | COc1cc(OC)c2c(=O)[nH]c(-c3ccc(Cc4nnn[nH]4)cc3)nc2c1 | 295 to 296 °C
72 | CC(C)C1=C(C#N)C(c2ccccc2Cl)c2c[nH]nc2N1 (configuration not stated) | > 250 °C
